Assay results from patent US20240252488A1 (KOREA RESEARCH INSTITUTE OF CHEMICAL TECHNOLOGY, priority 2020, published 2024).

Key:
FADD−/− Jurkat cells = assay: Necroptosis inhibition assay, TNF-α-induced necroptosis (CellTiter-Glo 2.0); assay type: cell-based, human; conditions: TNF-α 15 ng/mL; for Necroptosis inhibition assay (Rescue %) 1 μM: compound 1 μM; for Necroptosis inhibition assay (Rescue %) 10 μM: compound 10 μM
In short: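 Tested at three fixed concentrations (0.1, 1, 10 μM final) with a 30-minute room-temperature preincubation ahead of 15 ng/mL TNF-α challenge lasting 20 to 24 hours. Inhibition rate and cytotoxicity derive from ATP luminescence.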

MLKL = target: T1, MLKL (Homo sapiens, UniProt Q8NB16); assay: Measurement of binding affinity with MLKL receptor (competitive binding assay, Kd); set-up: made in house; host or cells: HEK 293 cell line (T7 phage in E. coli BL21-derived host is also described)
T1 sequence (Q8NB16 1-471): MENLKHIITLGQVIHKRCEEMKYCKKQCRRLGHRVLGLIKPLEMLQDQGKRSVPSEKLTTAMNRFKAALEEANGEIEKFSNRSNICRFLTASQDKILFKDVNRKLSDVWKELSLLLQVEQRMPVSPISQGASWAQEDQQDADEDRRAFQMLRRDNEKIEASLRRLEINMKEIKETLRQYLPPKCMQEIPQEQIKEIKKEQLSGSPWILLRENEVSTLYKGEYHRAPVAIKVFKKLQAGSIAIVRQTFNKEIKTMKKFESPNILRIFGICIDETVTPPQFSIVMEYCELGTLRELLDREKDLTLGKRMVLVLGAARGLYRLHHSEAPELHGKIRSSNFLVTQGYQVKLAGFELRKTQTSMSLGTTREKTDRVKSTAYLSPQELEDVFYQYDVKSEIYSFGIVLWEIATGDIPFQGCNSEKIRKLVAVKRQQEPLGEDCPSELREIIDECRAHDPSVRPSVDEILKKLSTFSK
In short: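 MLKL was produced in HEK 293 cells and tagged with DNA for detection. Liganded beads were blocked with excess biotin and washed to cut non-specific binding, then compounds (111× DMSO stocks, 0.9% DMSO in assay) competed for binding. Eluate kinase was measured by qPCR for Kd.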

Kd (MLKL) [nM]	Compound	Necroptosis inhibition assay (Rescue %) 1 μM (FADD−/− Jurkat cells) [%]	Necroptosis inhibition assay (Rescue %) 10 μM (FADD−/− Jurkat cells) [%]	Necroptosis inhibition assay (Rescue %) 1 μM (FADD−/− Jurkat cells; FADD−/− Jurkat cells) [%]	Necroptosis inhibition assay (Rescue %) 10 μM (FADD−/− Jurkat cells; FADD−/− Jurkat cells) [%]
27	Nc1ncc(-c2cn(C3CCN(CC4CCN(C(=O)C5CCN(c6ccc7c(c6)C(=O)N(C6CCC(=O)NC6=O)C7=O)CC5)CC4)CC3)nn2)nc1C(=O)OC(C(=O)Nc1ccc(F)cc1)c1ccccc1 (stereo not drawn) [TDH-221, 2-((4-fluorophenyl)amino)-2-oxo-1-phenylethyl 3-amino-6-(1-(1-((1-(1-(2-(2,6-dioxopiperidin-3-yl)-1,3-dioxoisoindolin-5-yl)piperidine-4-carbonyl)piperidin-4-yl)methyl)piperidin-4-yl)-1H-1,2,3-triazol-4-yl)pyrazine-2-carboxylate]	53.65	54.23		
30	Nc1ncc(C2=CCN(C(=O)CCCCCNC(=O)CNc3ccc4c(c3)C(=O)N(C3CCC(=O)NC3=O)C4=O)CC2)cc1C(=O)O[C@@H](C(=O)Nc1ccc(F)cc1)c1ccccc1 (stereo partly drawn) [TDH-072, (R)-2-((4-fluorophenyl)amino)-2-oxo-1-phenylethyl 6-amino-1′-(6-(2-((2-(2,6-dioxopiperidin-3-yl)-1,3-dioxoisoindolin-5-yl)amino)acetamido)hexanoyl)-1′,2′,3′,6′-tetrahydro-[3,4′-bipyridine]-5-carboxylate]	12.25	1.53		
11	Nc1ncc(-c2cnn(C3CCN(CCCCCCCCCCNC(=O)CNc4ccc5c(c4)C(=O)N(C4CCC(=O)NC4=O)C5=O)CC3)c2)nc1C(=O)O[C@@H](C(=O)Nc1ccc(F)cc1)c1ccccc1 (stereo partly drawn) [TDH-162, (R)-2-((4-fluorophenyl)amino)-2-oxo-1-phenylethyl 3-amino-6-(1-(1-(10-(2-((2-(2,6-dioxopiperidin-3-yl)-1,3-dioxoisoindolin-5-yl)amino)acetamido)decyl)piperidin-4-yl)-1H-pyrazol-4-yl)pyrazine-2-carboxylate]	36.55	26.25		
4.6	Nc1ncc(-c2cnn(C3CCN(CCOCCOCCNc4cccc5c4C(=O)N(C4CCC(=O)NC4=O)C5=O)CC3)c2)nc1C(=O)O[C@@H](C(=O)Nc1ccc(F)cc1)c1ccccc1 (stereo partly drawn) [TDH-121, (R)-2-((4-fluorophenyl)amino)-2-oxo-1-phenylethyl 3-amino-6-(1-(1-(2-(2-(2-((2-(2,6-dioxopiperidin-3-yl)-1,3-dioxoisoindolin-4-yl)amino)ethoxy)ethoxy)ethyl)piperidin-4-yl)-1H-pyrazol-4-yl)pyrazine-2-carboxylate]	2.96			
180	Nc1ncc(-c2cnn(C3CCN(CCOCCOCCNC(=O)C4CCN(c5ccc6c(c5)C(=O)N(C5CCC(=O)NC5=O)C6=O)CC4)CC3)c2)nc1C(=O)N[C@@H](C(=O)Nc1ccc(F)cc1)c1ccccc1 (stereo partly drawn) [TDH-214, 3-amino-6-(1-(1-(2-(2-(2-(1-(2-(2,6-dioxopiperidin-3-yl)-1,3-dioxoisoindolin-5-yl)piperidine-4-carboxamido)ethoxy)ethoxy)ethyl)piperidin-4-yl)-1H-pyrazol-4-yl)-N-((R)-2-((4-fluorophenyl)amino)-2-oxo-1-phenylethyl)pyrazine-2-carboxamide]	26.74	48.41		
50	Nc1ncc(C2=CCN(C(=O)CCCCCNC(=O)COc3cccc4c3C(=O)N(C3CCC(=O)NC3=O)C4=O)CC2)cc1C(=O)O[C@@H](C(=O)Nc1ccc(F)cc1)c1ccccc1 (stereo partly drawn) [TDH-081, (R)-2-((4-fluorophenyl)amino)-2-oxo-1-phenylethyl 6-amino-1′-(6-(2-((2-(2,6-dioxopiperidin-3-yl)-1,3-dioxoisoindolin-4-yl)oxy)acetamido)hexanoyl)-1′,2′,3′,6′-tetrahydro-[3,4′-bipyridine]-5-carboxylate]	6.8			
91	Nc1ncc(-c2cnn(C3CCN(CCCN4CCN(C(=O)CNc5ccc6c(c5)C(=O)N(C5CCC(=O)NC5=O)C6=O)CC4)CC3)c2)nc1C(=O)N[C@@H](C(=O)Nc1ccc(F)cc1)c1ccccc1 (stereo partly drawn) [TDH-493, 3-amino-6-(1-(1-(3-(4-((2-(2,6-dioxopiperidin-3-yl)-1,3-dioxoisoindolin-5-yl)glycyl)piperazin-1-yl)propyl)piperidin-4-yl)-1H-pyrazol-4-yl)-N-((R)-2-((4-fluorophenyl)amino)-2-oxo-1-phenylethyl)pyrazine-2-carboxamide]			1.49	−3.98
> 10000	Nc1nccnc1C(=O)O[C@H](C(=O)Nc1ccc(F)cc1)c1ccccc1 [TDH-002, (S)-2-((4-fluorophenyl)amino)-2-oxo-1-phenylethyl 3-aminopyrazine-2-carboxylate]	6.35			
140	Nc1ncc(-c2ccc(N3CCN(CC4CCN(C(=O)C5CCN(c6cccc7c6C(=O)N(C6CCC(=O)NC6=O)C7=O)CC5)CC4)CC3)nc2)nc1C(=O)OC(C(=O)Nc1ccc(F)cc1)c1ccccc1 (stereo not drawn) [TDH-230, 2-((4-fluorophenyl)amino)-2-oxo-1-phenylethyl 3-amino-6-(6-(4-((1-(1-(2-(2,6-dioxopiperidin-3-yl)-1,3-dioxoisoindolin-4-yl)piperidine-4-carbonyl)piperidin-4-yl)methyl)piperazin-1-yl)pyridin-3-yl)pyrazine-2-carboxylate]	7.4	10.64		
19	Nc1ncc(C2=CCN(C(=O)COCCOCCNC(=O)CNc3cccc4c3C(=O)N(C3CCC(=O)NC3=O)C4=O)CC2)cc1C(=O)O[C@@H](C(=O)Nc1ccc(F)cc1)c1ccccc1 (stereo partly drawn) [TDH-084, (R)-2-((4-fluorophenyl)amino)-2-oxo-1-phenylethyl 6-amino-1′-(2-(2-(2-(2-((2-(2,6-dioxopiperidin-3-yl)-1,3-dioxoisoindolin-4-yl)amino)acetamido)ethoxy)ethoxy)acetyl)-1′,2′,3′,6′-tetrahydro-[3,4′-bipyridine]-5-carboxylate]	14.91	3.95		
210	Nc1ncc(C2=CCN(C(=O)CCCCCNc3cccc4c3C(=O)N(C3CCC(=O)NC3=O)C4=O)CC2)cc1C(=O)O[C@@H](C(=O)Nc1ccc(F)cc1)c1ccccc1 (stereo partly drawn) [TDH-073, (R)-2-((4-fluorophenyl)amino)-2-oxo-1-phenylethyl 6-amino-1′-(6-((2-(2,6-dioxopiperidin-3-yl)-1,3-dioxoisoindolin-4-yl)amino)hexanoyl)-1′,2′,3′,6′-tetrahydro-[3,4′-bipyridine]-5-carboxylate]		3.26		
33	Nc1ncc(C2=CCN(C(=O)COCCOCCNC(=O)C3CCN(c4cccc5c4C(=O)N(C4CCC(=O)NC4=O)C5=O)CC3)CC2)cc1C(=O)O[C@@H](C(=O)Nc1ccc(F)cc1)c1ccccc1 (stereo partly drawn) [TDH-088, (R)-2-((4-fluorophenyl)amino)-2-oxo-1-phenylethyl 6-amino-1′-(2-(2-(2-(1-(2-(2,6-dioxopiperidin-3-yl)-1,3-dioxoisoindolin-4-yl)piperidine-4-carboxamido)ethoxy)ethoxy)acetyl)-1′,2′,3′,6′-tetrahydro-[3,4′-bipyridine]-5-carboxylate]	4.62			
200	CC(C)(C)OC(=O)N1CCC(n2cc(-c3cnc(N)c(C(=O)N[C@@H](C(=O)Nc4ccc(F)cc4)c4ccccc4)n3)cn2)CC1 [TDH-098, tert-butyl (R)-4-(4-(5-amino-6-((2-((4-fluorophenyl)amino)-2-oxo-1-phenylethyl)carbamoyl)pyrazin-2-yl)-1H-pyrazol-1-yl)piperidine-1-carboxylate]	3.54			
11	Cc1ncsc1-c1ccc(CNC(=O)[C@@H]2C[C@@H](O)CN2C(=O)[C@@H](NC(=O)CCC(=O)N2CCC(CN3CCC(n4cc(-c5cnc(N)c(C(=O)O[C@@H](C(=O)Nc6ccc(F)cc6)c6ccccc6)n5)cn4)CC3)CC2)C(C)(C)C)cc1 [TDH-212, (R)-2-((4-fluorophenyl)amino)-2-oxo-1-phenylethyl 3-amino-6-(1-(1-((1-(4-(((S)-1-((2S,4R)-4-hydroxy-2-((4-(4-methylthiazol-5-yl)benzyl)carbamoyl)pyrrolidin-1-yl)-3,3-dimethyl-1-oxobutan-2-yl)amino)-4-oxobutanoyl)piperidin-4-yl)methyl)piperidin-4-yl)-1H-pyrazol-4-yl)pyrazine-2-carboxylate]	24.34	49.14		
